This is an account of results in patent publication US6368580B1, “Composition suitable as food integrator and for the treatment of intestinal disorders and alterations of the bacterial flora” (Giuliani S.p.A, priority 1999, dated 2002).

“Also recorded” adds a separate entry of the source.

Assay [1] relates to Bacillus coagulans. Kind of assay: Growth of Bacillus coagulans in Sabouraud's broth with added nutrient, optical density by biophotometer. The following applies: for increase in growth of Bacillus coagulans (optical density A630), preliminary evaluations of amino acids: aspartic acid, proline, lysine, tryptophan compared, biophotometer. In kind it is cell-based. As for the experimental part:
Consequently, microbiological tests have been conducted by adding a number of amino acids (particularly aspartic acid, lysine, proline) to the culture medium specific for Lactobacillus. […] Evaluation of the growth of Bacillus coagulans was performed using and agar/Sabouraud's broth to which 0.5% of yeast extract was added. At this point, an attempt was made to determine which of the various amino acid components present in the yeast (aspartic acid, proline, lysine, tryptophan), and in what concentrations, were able to favor more vigorous development of the microorganism. The increase in growth was evaluated by biophotometer which recorded the optical density (A630).
In special sterilized cuvettes for biophotometry, broth cultures were prepared, with the addition to the base culture medium (10 ml of Sabouraud's broth) of: […]
One cuvette containing Sabouraud's broth alone was used as control. Each of the four broth cultures was subsequently inoculated with 100 μl of a dilution of a broth culture (overnight incubation) of Bacillus coagulans made starting from the lyophilized powder (final concentration of 10^4 cfu/ml).
The growth of the culture was evaluated in terms of optical density, using a biophotometer, which is capable of determining the degree of development on the basis of the increase in turbidity. The curvettes thus prepared were set inside the compartment of the instrument in the presence of a magnetic stirrer that was able to keep the culture in uniform suspension, a condition which enables a proper reading of the turbidity of the culture medium to be made.
The optical density appears on the ordinate, the values proportional to the number of bacteria produced. The time is given on the abscissa. The four curves shown on the graph identify the behavior, respectively, of lysine (at a concentration of 0.025 mg/ml), yeast (5 mg/ml), proline (0.01 mg/ml), and the Sabouraud's culture medium reference standard.

For assay [2], the system named is Bacillus coagulans. Kind of assay: Lactic acid (L+) production in Bacillus coagulans broth culture. It counts as cell-based. Conditions: 24-hour broth culture to which lysine was added; higher than blank controls or other amino acids.

`NCCCC[C@H](N)C(=O)O` [lysine]: in assay [1] (amino acid added to the culture medium, lysine at concentrations of the order of 0.1-1 mg/ml), the “growth of the Lactobacillus cells and formation of lactic acid (L+)” value is “enhanced the growth of the Lactobacillus cells and the formation of lactic acid (L^+)”. In addition, in assay [1], the “increase in growth of Bacillus coagulans (optical density A630), preliminary evaluations of amino acids” value is “best results”. For the same compound, the “growth of Bacillus coagulans (optical density, growth curve)” value in assay [1] (lysine 0.025 mg/ml in Sabouraud's broth, overnight incubation at 37° C., compared with proline 0.01 mg/ml, yeast 5 mg/ml, broth alone) is “most effective nutrient; also recorded: significantly increases the growth curve, reducing the latency phase and increasing the number of cells”. Besides, in assay [2], the “lactic acid (L+) production” value is 486 mg/L.
As for `O=C(O)[C@@H]1CCCN1` [proline, reference compound], the “increase in growth of Bacillus coagulans (optical density A630), preliminary evaluations of amino acids” value in assay [1] is listed as “best results”.
